Reference: patent US20220160817A1, “Pharmaceutical composition with improved stability” (Foresee Pharmaceuticals Co., Ltd., priority 2014, published 2022)
Values belong to the compound of their own block, whether it stands above or below them.

Assays:
Format in all cases: physicochemical
[1] = FMOC-SER-OH / FMOC-ARG-OH reaction with D,L-lactide monomers in NMP at 25° C., HPLC; conditions: 25% D,L-lactide in NMP
Procedure: All impurity structures identified have polymers reacting with the arginine group of the peptide. In the present invention, it is shown that the conjugates of lactide monomers reacting with the serine group of the peptide are the more significant impurities generated, that were not observed previously. To test the generation of leuprolide conjugates with lactide monomers, FMOC-ARG-OH or FMOC-SER-OH was dissolved in NMP. To this solution D,L-lactide monomers were added. The solution was mixed well by vortexing. 5 uL of the solution was added to an HPLC vial with 0.5 mL of acetonitrile and 0.5 mL stability buffer (0.6% TEA/0.3% H3PO4 in water, pH=3.0). The sample was then analyzed by HPLC. The remaining solutions were stored in a glass vial at 25° C. Samples were taken at specified time points and analyzed by UPLC.

[2] = L-lactide monomer impurity generation with leuprolide mesylate in NMP, HPLC; conditions: NMP with 10% L-lactide, 3 hours at 37° C.
[3] = Octreotide mesylate with excess methane sulfonic acid in solvent with added lactide monomer; conditions: pH of the salt solution 2.4, pharmaceutically acceptable solvent
Description: U.S. Pat. No. 8,343,513 further discloses that in order to reduce the impurities generation, low molecular weight polymers with high acid numbers and significant amount of low pKa acid additives or oligomers have to be used. Such acidic dispersed phases are not suitable for human parenteral use due to tissue irritation from the low pH. […] In fact more impurities are generated for the solution with excess acid than the one without.

impurities generated with D,L-lactide monomers ([1]; 1 day at 25° C.): less than that seen with the serine
Compound: NC(N)=NCCC[C@H](NC(=O)OCC1c2ccccc2-c2ccccc21)C(=O)O [FMOC-ARG-OH]

impurities generated with D,L-lactide monomers ([1]; 3 hours at 25° C.): very little impurities
impurities generated with D,L-lactide monomers ([1]; 1 day at 25° C.): significant amount of impurities
Compound: O=C(N[C@@H](CO)C(=O)O)OCC1c2ccccc2-c2ccccc21 [FMOC-SER-OH]

Compound: leuprolide mesylate [LAMS]
lactide-related impurity peak shape in chromatogram [2]: single peak

Compound: octreotide mesylate
stability of the peptide with added lactide monomer [3]: highly unstable
